Experimental findings from patent publication US20100261679A1 (priority 2007, published 2010) are described below.

SMILES strings stand for the structures. A value given as a limit tells only on which side of the number the result lay.

In experiment [1] the target is T1, cytoplasmic domain of the human CSF-1R (Homo sapiens, UniProt P07333).
T1 construct: Recombinant protein corresponding to the cytoplasmic domain of the human CSF-1R; purchased Invitrogen Corporation, Carlsbad, Calif; U.S.A. PV3249
T1 sequence (P07333 539-972 limits assumed): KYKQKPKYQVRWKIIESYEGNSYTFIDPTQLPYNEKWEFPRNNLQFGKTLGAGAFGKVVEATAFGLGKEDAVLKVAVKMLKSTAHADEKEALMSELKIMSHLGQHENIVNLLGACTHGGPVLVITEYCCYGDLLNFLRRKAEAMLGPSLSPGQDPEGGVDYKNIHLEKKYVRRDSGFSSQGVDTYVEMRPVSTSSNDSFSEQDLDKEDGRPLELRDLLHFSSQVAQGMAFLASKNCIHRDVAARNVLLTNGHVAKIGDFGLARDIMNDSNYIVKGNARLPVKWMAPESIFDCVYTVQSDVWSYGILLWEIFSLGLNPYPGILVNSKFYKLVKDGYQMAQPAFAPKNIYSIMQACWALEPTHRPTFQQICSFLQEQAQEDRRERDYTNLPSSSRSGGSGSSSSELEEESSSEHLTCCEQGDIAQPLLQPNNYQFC
Put plainly: In vitro kinase assay for CSF-1R (AlphaScreen). Conditions: tested at about 1 μM. It counts as biochemical. For orientation: Alpha assays give light when donor and acceptor beads are brought close together.

The target of a further experiment is T2, cKIT (Homo sapiens, UniProt P10721).
T2 construct: The kinase domain of cKIT was assayed in 50 mM Hepes; purchased Upstate 14-559
T2 sequence (P10721 589-937 limits assumed): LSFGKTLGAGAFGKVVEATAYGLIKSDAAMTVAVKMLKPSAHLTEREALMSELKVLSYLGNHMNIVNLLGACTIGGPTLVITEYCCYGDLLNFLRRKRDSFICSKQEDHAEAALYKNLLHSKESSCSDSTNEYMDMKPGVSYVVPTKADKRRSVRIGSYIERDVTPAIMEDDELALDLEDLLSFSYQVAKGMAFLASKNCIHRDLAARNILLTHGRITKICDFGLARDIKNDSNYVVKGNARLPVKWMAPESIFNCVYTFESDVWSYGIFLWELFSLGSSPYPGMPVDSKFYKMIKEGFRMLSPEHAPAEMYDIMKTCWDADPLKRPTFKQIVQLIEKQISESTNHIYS
Put plainly: Inhibition of cKIT kinase in an in vitro biochemical assay (alphascreen). The following applies: tested at about 1 μM.

Another experiment addresses T3, PDGFRb (Homo sapiens, UniProt P09619).
T3 construct: The kinase domain of PDGFRβ was assayed in 50 mM Hepes; purchased Invitrogen P3082
Briefly: Inhibition of PDGFRb kinase in an in vitro biochemical assay (alphascreen). Conditions: tested at about 1 μM; read-out: PDGFR % inhibition at 1 μM.

T3 sequence (P09619 600-962 limits assumed): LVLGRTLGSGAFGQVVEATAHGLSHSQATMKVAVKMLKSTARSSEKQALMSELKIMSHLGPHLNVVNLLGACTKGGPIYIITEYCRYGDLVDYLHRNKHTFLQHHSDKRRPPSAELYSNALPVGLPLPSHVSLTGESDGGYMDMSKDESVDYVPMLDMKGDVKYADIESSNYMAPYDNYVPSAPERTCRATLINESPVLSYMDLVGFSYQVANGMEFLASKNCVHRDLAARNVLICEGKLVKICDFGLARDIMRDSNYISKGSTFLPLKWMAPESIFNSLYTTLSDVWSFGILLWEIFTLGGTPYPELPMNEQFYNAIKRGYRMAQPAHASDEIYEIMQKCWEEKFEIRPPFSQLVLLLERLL

For orientation: inhibition means the relative decrease from the control value, in per cent. Turning to `CNC(=O)c1cc(Oc2ccc3nc(NCC(C)(C)N4CCOCC4)ncc3c2)ccn1` [Example 61, N-methyl-4-(2-(2-methyl-2-morpholinopropylamino)quinazolin-6-yloxy)picolinamide], the results for the inhibition at 1 µM (in experiment [1]; against cKIT; at PDGFRb) were 93%, 12% and below 1%, respectively.

For the compound `c1cc(Cc2ccc3nc(NCC4CCCCC4)sc3c2)ccn1` [Example 77, N-(cyclohexylmethyl)-6-(pyridin-4-ylmethyl)benzo[d]thiazol-2-amine], the inhibition at 1 µM in experiment [1] worked out at 74%; against cKIT it was 10%; at PDGFRb, 16%.

Consider `CN(C)C(=O)c1cc(Oc2ccc3nc(Nc4ccccc4N4CCOCC4)ncc3c2)ccn1` [Example 31, N,N-dimethyl-4-(2-(2-morpholinophenylamino)quinazolin-6-yloxy)picolinamide], for which the inhibition at 1 µM in experiment [1] was 67%; on cKIT, 8%; at PDGFRb it was below 1%.

As to `CNC(=O)c1cc(Oc2ccc3nc(OCC4CCCCC4)ncc3c2)ccn1` [Example 55, 4-(2-(cyclohexylmethoxy)quinazolin-6-yloxy)-N-methylpicolinamide], the values for the inhibition at 1 µM (in experiment [1]; on cKIT; on PDGFRb) were 99%, 42% and 6%, respectively.

With `CC[C@H](C)[C@@H](CO)Nc1ncc2cc(Oc3ccnc(C(=O)NC)c3)ccc2n1` [Cmpd 14, 4-(2-((2S,3S)-1-hydroxy-3-methylpentan-2-ylamino)quinazolin-6-yloxy)-N-methylpicolinamide], the inhibition at 1 µM in experiment [1] was 99%; at cKIT, 19%; at PDGFRb, 15%.

`CNC(=O)c1cc(Oc2ccc3nc(N[C@@H](C)c4ccccc4)ncc3c2)ccn1` [Example 64, (S)-N-methyl-4-(2-(1-phenylethylamino)quinazolin-6-yloxy)picolinamide]: the inhibition at 1 µM in experiment [1] is 99%; against cKIT, 16%; at PDGFRb, 7%.

For `OC(c1ccncc1)c1ccc2nc(NCC3CCCCC3)sc2c1` (stereo not drawn) [Example 76, (2-(cyclohexylmethylamino)benzo [d]thiazol-6-yl)(pyridin-4-yl)methanol], the inhibition at 1 µM stood at 65% in experiment [1], 49% against cKIT and 27% on PDGFRb.
